molecular target: T1, ALK5 kinase (Homo sapiens, UniProt P36897); test: LanthaScreen Eu Kinase Binding Assay; details: Kinase Tracer 178, Eu-anti-GST Antibody, read-out: IC50 Enzyme
T1 sequence (P36897 34-503): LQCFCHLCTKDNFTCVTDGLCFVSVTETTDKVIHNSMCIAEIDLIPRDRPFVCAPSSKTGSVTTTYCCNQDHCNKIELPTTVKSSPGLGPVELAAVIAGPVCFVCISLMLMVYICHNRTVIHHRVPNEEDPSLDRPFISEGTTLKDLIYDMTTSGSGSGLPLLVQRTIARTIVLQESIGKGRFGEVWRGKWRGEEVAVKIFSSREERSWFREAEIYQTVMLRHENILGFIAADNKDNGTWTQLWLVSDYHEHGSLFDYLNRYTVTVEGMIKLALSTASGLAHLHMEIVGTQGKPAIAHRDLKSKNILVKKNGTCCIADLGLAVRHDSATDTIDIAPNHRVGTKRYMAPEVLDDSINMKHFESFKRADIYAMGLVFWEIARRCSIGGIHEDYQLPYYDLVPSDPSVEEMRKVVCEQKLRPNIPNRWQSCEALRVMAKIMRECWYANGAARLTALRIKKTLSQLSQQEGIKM
Experimental: [Example 1] LanthaScreen Eu Kinase Binding Assay
4 μL of 4× Test Compound in 4% DMSO and 4 μL of 4× Kinase in Kinase buffer were added to wells (low volume, white 384-well plate (Greiner Cat. #784207)). The plate was shaken for 30 seconds, centrifuged for 10 seconds at 1000 rpm, and incubated at RT for 30 minutes. Then, 4 μL of 4× Eu-anti-GST Antibody and 4 μL of 4× Kinase Tracer 178 were added to the wells. The plate was shaken for 30 seconds, centrifuged for 10 seconds at 1000 rpm, and incubated at RT for 60 minutes. Fluorescence was measured by a plate reader, Biotek Synergy H1 (Vermont, USA) under the following conditions. • Excitation: 340 nm (3 nm bandpass) • Kinase tracer emission: 665 nm (10 nm bandpass) • Eu Ab emission: 615 nm (10 nm bandpass) • Emission ratio=665 nm (tracer)/615 nm (Eu Ab) • The higher the binding affinity of compound to ALK5 kinase is, the less the emission ratio is.

| SMILES | IC50 [µM] |
| --- | --- |
| NC(=O)c1cccc(Nc2cc(Oc3sc(NC4CC4)nc3-c3ccccc3)ccn2)c1 [A-46, 3-((4-((2-(Cyclopropylamino)-4-phenylthiazol-5-yl)oxy)pyridin-2-yl)amino)benzamide] | < 0.1 |
| CNc1nc(-c2ccccc2)c(Oc2ccnc(Nc3ccc(S(N)(=O)=O)cc3)c2)s1 [A-53, 4-((4-((2-(Methylamino)-4-phenylthiazol-5-yl)oxy)pyridin-2-yl)amino)benzenesulfonamide] | < 0.1 |
| CNc1nc(-c2ccccc2)c(Oc2ccnc(Nc3ccnc(C(C)(C)O)c3)c2)s1 [A-54, 2-(4-((4-((2-(Methylamino)-4-phenylthiazol-5-yl)oxy)pyridin-2-yl)amino)pyridin-2-yl)propan-2-ol] | < 0.1 |

test system: TGF-β signaling; test: Assay for evaluating cellular inhibition of TGF-β signaling, 4T1 (SBE-luc2P) luciferase reporter; assay type: cell-based; details: Mus musculus, 4T1, 4T1 (SBE-luc2P) transient pool, 0.2% FBS, 2 h pre-treatment, TGF-β1 2 ng/mL 24 h; read-out: IC50 4T1 Cell
Experimental: [Example 2] Assay for Evaluating Cellular Inhibition of TGF-β Signaling
4T1 (SBE-luc2P) transient pool that have SBE-luc2P (hygro) expression plasmid or HEK293 (SBE reporter) stable cells (BPS bioscience) were seeded at 6×10^3 cells/well or 2.5×10^4 cells/well in 96-well plate, respectively. 4T1 (SBE-luc2P) transient pool were pre-treated with novel compound synthesized in Example 1 above in 0.2% FBS at approximately 60% confluence at 37° C. in 5% CO2. Also, HEK293 (SBE reporter) stable cells were pre-treated with each test compounds of formula in 0.5% FBS at approximately 80% confluence at 37° C. in 5% CO2. After 2 hours, cells were treated with TGF-β1 (2 ng/mL) for 24 h at 37° C. in 5% CO2. Cell lysates were prepared using Luciferase Assay (Promega) according to the manufacturer's instruction, and luminescence was measured by a plate reader, Biotek Synergy H1 (Vermont, USA).

| SMILES | IC50 [µM] |
| --- | --- |
| Cc1nc(-c2ccccc2)c(Oc2ccnc(Nc3ccc(Cl)nc3)c2)s1 [A-84, N-(6-Chloropyridin-3-yl)-4-((2-methyl-4-phenylthiazol-5-yl)oxy)pyridin-2-amine] | > 0.1 |
| Cc1nc(-c2ccccc2)c(Oc2ccnc(Nc3ccnc(F)c3)c2)s1 [A-87, N-(2-Fluoropyridin-4-yl)-4-((2-methyl-4-phenylthiazol-5-yl)oxy)pyridin-2-amine] | > 0.1 |
| COc1cc(Nc2cc(Oc3sc(C)nc3-c3ccccc3)ccn2)ccn1 [A-88, N-(2-Methoxypyridin-4-yl)-4-((2-methyl-4-phenylthiazol-5-yl)oxy)pyridin-2-amine] | < 0.1 |
| Cc1nc(-c2ccccc2)c(Oc2ccnc(Nc3ccnc(Cl)c3)c2)s1 [A-89, N-(2-Chloropyridin-4-yl)-4-((2-methyl-4-phenylthiazol-5-yl)oxy)pyridin-2-amine] | < 0.1 |
| Cc1nc(-c2ccccc2)c(Oc2ccnc(Nc3ccc(C(N)=O)cn3)c2)s1 [A-90, 6-((4-((2-Methyl-4-phenylthiazol-5-yl)oxy)pyridin-2-yl)amino)nicotinamide] | < 0.1 |
| Cc1nc(-c2ccccc2)c(Oc2ccnc(NCc3ccccc3)c2)s1 [A-94, N-Benzyl-4-((2-methyl-4-phenylthiazol-5-yl)oxy)pyridin-2-amine] | > 0.1 |
| Cc1nc(-c2ccccc2)c(Oc2ccnc(NCc3ccc(F)cc3)c2)s1 [A-95, N-(4-Fluorobenzyl)-4-((2-methyl-4-phenylthiazol-5-yl)oxy)pyridin-2-amine] | > 0.1 |
| Cc1nc(-c2ccccc2)c(Oc2ccnc(NCc3cccc(F)c3)c2)s1 [A-96, N-(3-Fluorobenzyl)-4-((2-methyl-4-phenylthiazol-5-yl)oxy)pyridin-2-amine] | > 0.1 |
| Cc1nc(-c2ccccc2)c(Oc2ccnc(Nc3cnn(S(C)(=O)=O)c3)c2)s1 [A-97, 4-((2-Methyl-4-phenylthiazol-5-yl)oxy)-N-(1-(methylsulfonyl)-1H-pyrazol-4-yl)pyridin-2-amine] | > 0.1 |
| Cc1nc(-c2ccccc2)c(Oc2ccnc(Nc3cnn(S(=O)(=O)C4CC4)c3)c2)s1 [A-98, N-(1-(Cyclopropylsulfonyl)-1H-pyrazol-4-yl)-4-((2-methyl-4-phenylthiazol-5-yl)oxy)pyridin-2-amine] | > 0.1 |
| Cc1nc(-c2ccccc2)c(Oc2ccnc(Nc3cnn(C)c3)c2)s1 [A-99, N-(1-Methyl-1H-pyrazol-4-yl)-4-((2-methyl-4-phenylthiazol-5-yl)oxy)pyridin-2-amine] | < 0.1 |
| Cc1nc(-c2ccccc2)c(Oc2ccnc(Nc3cn[nH]c3)c2)s1 [A-100, 4-((2-Methyl-4-phenylthiazol-5-yl)oxy)-N-(1H-pyrazol-4-yl)pyridin-2-amine] | < 0.1 |
| Cc1nc(-c2ccccc2)c(Oc2ccnc(Nc3cccc(C(N)=O)n3)c2)s1 [A-101, 6-((4-((2-Methyl-4-phenylthiazol-5-yl)oxy)pyridin-2-yl)amino)picolinamide] | < 0.1 |
| Cc1nc(-c2ccccc2)c(Oc2ccnc(Nc3ccnc(C(N)=O)c3)c2)s1 [A-102, 4-((4-((2-Methyl-4-phenylthiazol-5-yl)oxy)pyridin-2-yl)amino)picolinamide] | > 0.1 |
| COc1ccc(Nc2cc(Oc3sc(C)nc3-c3ccccc3)ccn2)cc1 [A-103, N-(4-Methoxyphenyl)-4-((2-methyl-4-phenylthiazol-5-yl)oxy)pyridin-2-amine] | > 0.1 |
| COc1cc(Nc2cc(Oc3sc(C)nc3-c3ccccc3)ccn2)ccc1N1CCN(C)CC1 [A-106, N-(3-Methoxy-4-(4-methylpiperazin-1-yl)phenyl)-4-((2-methyl-4-phenylthiazol-5-yl)oxy)pyridin-2-amine] | < 0.1 |
| COCCN1CCN(c2ccc(Nc3cc(Oc4sc(C)nc4-c4ccccc4)ccn3)cc2)CC1 [A-108, N-(4-(4-(2-Methoxyethyl)piperazin-1-yl)phenyl)-4-((2-methyl-4-phenylthiazol-5-yl)oxy)pyridin-2-amine] | < 0.1 |
| O=S(=O)(Nc1cccc(Nc2cc(Oc3sc(C4CC4)nc3-c3ccccc3)ccn2)c1)C(F)(F)F [A-123, N-(3-((4-((2-Cyclopropyl-4-phenylthiazol-5-yl)oxy)pyridin-2-yl)amino)phenyl)-1,1,1-trifluoromethanesulfonamide] | < 0.1 |
| COC(=O)c1ccc(Nc2cc(Oc3sc(C4CC4)nc3-c3ccccc3)ccn2)nc1 [A-130, Methyl 6-((4-((2-cyclopropyl-4-phenylthiazol-5-yl)oxy)pyridin-2-yl)amino)nicotinate] | < 0.1 |
| COC(=O)c1cccc(Nc2cc(Oc3sc(C4CC4)nc3-c3ccccc3)ccn2)n1 [A-131, Methyl 6-((4-((2-cyclopropyl-4-phenylthiazol-5-yl)oxy)pyridin-2-yl)amino)picolinate] | > 0.1 |
| COC(=O)c1cccc(Nc2cc(Oc3sc(N(C)C)nc3-c3ccccc3)ccn2)n1 [A-162, Methyl 6-((4-((2-(dimethylamino)-4-phenylthiazol-5-yl)oxy)pyridin-2-yl)amino)picolinate] | < 0.1 |
| COC(=O)c1cccc(Nc2cc(Oc3sc(C(C)C)nc3-c3ccccc3)ccn2)n1 [A-216, Methyl 6-((4-((2-Isopropyl-4-phenylthiazol-5-yl)oxy)pyridin-2-yl)amino)picolinate] | > 0.1 |
| Cc1nc(-c2ccccc2)c(Oc2cc(Nc3cccc(S(N)(=O)=O)c3)ncn2)s1 [A-237, 3-((6-((2-Methyl-4-phenylthiazol-5-yl)oxy)pyrimidin-4-yl)amino)benzenesulfonamide] | > 0.1 |
| Nc1nc(-c2ccccc2)c(Oc2cc(Nc3cccc(S(N)(=O)=O)c3)ncn2)s1 [A-239, 3-((6-((2-Amino-4-phenylthiazol-5-yl)oxy)pyrimidin-4-yl)amino)benzenesulfonamide] | < 0.1 |
| Cc1cccc(-c2nc(C)sc2Oc2ccnc(Nc3cccc(Cc4nnn[nH]4)c3)c2)n1 [A-305, N-(3-((1H-Tetrazol-5-yl)methyl)phenyl)-4-((2-methyl-4-(6-methylpyridin-2-yl)thiazol-5-yl)oxy)pyridin-2-amine] | > 0.1 |
| Cc1cccc(-c2nc(C)sc2Oc2ccnc(Nc3cccc(CCC#N)c3)c2)n1 [A-306, 3-(3-((4-((2-Methyl-4-(6-methylpyridin-2-yl)thiazol-5-yl)oxy)pyridin-2-yl)amino)phenyl)propanenitrile] | < 0.1 |
| Cc1cccc(-c2nc(C)sc2Oc2ccnc(Nc3cccc(CCc4nn[nH]n4)c3)c2)n1 [A-307, N-(3-(2-(2H-tetrazol-5-yl)ethyl)phenyl)-4-((2-methyl-4-(6-methylpyridin-2-yl)thiazol-5-yl)oxy)pyridin-2-amine] | < 0.1 |
| COC(=O)C(C)(C)c1cccc(Nc2cc(Oc3sc(C)nc3-c3cccc(C)n3)ccn2)c1 [A-308, Methyl 2-methyl-2-(3-((4-((2-methyl-4-(6-methylpyridin-2-yl)thiazol-5-yl)oxy)pyridin-2-yl)amino)phenyl)propanoate] | < 0.1 |
| CCc1nc(-c2ccccc2)c(Oc2ccnc(Nc3cccc(NS(=O)(=O)C(F)(F)F)c3)c2)s1 [A-311, N-(3-((4-((2-Ethyl-4-phenylthiazol-5-yl)oxy)pyridin-2-yl)amino)phenyl)-1,1,1-trifluoromethanesulfonamide] | < 0.1 |
